Laboratory results as given in patent US7888329B2, “Substituted aryl piperidinylalkynyladenosines as A2AR agonists” (PGxHealth, LLC, priority 2006, dated 2011).

Legend:
[1] = target: T1, recombinant human A2A receptors (Homo sapiens, UniProt P29274); test: Radioligand competition binding with 125I-APE or 125I-ZM241385, Sf9 cell membranes; details: 125I-APE or 125I-ZM241385, Sf9 membranes; class symbols
T1 construct: expressed in transfected cells; host or cells: Sf9 insect cells infected with virus; membranes
T1 sequence (P29274 whole entry): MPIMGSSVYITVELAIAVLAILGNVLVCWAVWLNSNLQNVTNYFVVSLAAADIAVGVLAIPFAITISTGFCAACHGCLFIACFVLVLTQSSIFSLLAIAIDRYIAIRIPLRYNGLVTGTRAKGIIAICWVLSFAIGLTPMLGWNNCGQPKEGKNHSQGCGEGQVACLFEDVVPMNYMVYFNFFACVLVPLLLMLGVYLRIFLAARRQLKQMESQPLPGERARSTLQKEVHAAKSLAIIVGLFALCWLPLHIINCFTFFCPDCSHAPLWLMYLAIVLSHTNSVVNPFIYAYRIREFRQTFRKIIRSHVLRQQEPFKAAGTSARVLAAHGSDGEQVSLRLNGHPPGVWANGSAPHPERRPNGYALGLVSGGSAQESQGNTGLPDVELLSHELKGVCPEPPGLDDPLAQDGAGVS
Method in brief: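 Membranes (5 μg for A2A; 25 μg for A1) incubated with radioligand at room temperature, 3 h for agonists or 2 h for antagonists, in HE buffer with 1 U/mL adenosine deaminase and 5 mM MgCl2, ± 50 μM GTPγS. Assays ended by filtration; nonspecific binding defined with 50 μM NECA.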

human A1 AR = target: T2, human A1 AR (Homo sapiens, UniProt P30542); test: Radioligand competition binding with 125I-ABA, membranes of CHO K1 cells stably expressing the receptor; details: Ki derived from IC50, class symbols
T2 construct: expressed in transfected cells; membranes
T2 sequence (P30542 1-326): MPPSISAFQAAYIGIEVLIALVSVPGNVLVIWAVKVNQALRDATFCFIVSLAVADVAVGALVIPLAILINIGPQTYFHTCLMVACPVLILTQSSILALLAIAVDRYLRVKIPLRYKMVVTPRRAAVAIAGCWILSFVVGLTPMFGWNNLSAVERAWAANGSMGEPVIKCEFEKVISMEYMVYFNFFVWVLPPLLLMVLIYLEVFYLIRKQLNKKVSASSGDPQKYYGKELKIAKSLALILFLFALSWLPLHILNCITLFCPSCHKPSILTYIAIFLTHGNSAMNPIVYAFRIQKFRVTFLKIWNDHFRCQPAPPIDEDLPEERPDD

[2] = test system: Purified human neutrophils; test: Luminol enhanced chemiluminescence (neutrophil oxidative activity), fMLP stimulated; type: cell-based; details: Homo sapiens, Neutrophil; read-out: Functional
human A3 AR = target: T3, human A3 AR (Homo sapiens, UniProt P0DMS8); test: Radioligand competition binding with 125I-ABA, membranes of HEK 293 cells stably expressing the receptor; details: Ki derived from IC50, class symbols
T3 construct: expressed in transfected cells; membranes
T3 sequence (P0DMS8 1-318): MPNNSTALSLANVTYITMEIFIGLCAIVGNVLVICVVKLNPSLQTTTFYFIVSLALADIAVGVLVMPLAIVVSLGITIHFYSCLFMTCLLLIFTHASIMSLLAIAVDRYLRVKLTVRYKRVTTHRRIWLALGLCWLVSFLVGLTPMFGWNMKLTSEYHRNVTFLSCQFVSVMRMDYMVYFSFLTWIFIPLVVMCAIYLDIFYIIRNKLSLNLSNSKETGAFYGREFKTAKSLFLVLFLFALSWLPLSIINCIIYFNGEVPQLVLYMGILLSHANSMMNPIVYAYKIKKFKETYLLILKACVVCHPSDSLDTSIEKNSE
Method in brief: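 Triplicate binding with 25 μg membrane protein and 0.5-1 nM agonist radioligand in HE buffer with 1 U/mL adenosine deaminase and 5 mM MgCl2, ±50 μM GTPγS, 3 h at room temperature, then filtration. Nonspecific binding with 50 μM NECA; Ki from IC50 corrected for radioligand and competitor depletion.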

Row | Compound | Ki [1] [nM] | Ki (human A1 AR) [nM] | EC50 [2] [nM] | Ki (human A3 AR) [nM]
1 | CCNC(=O)[C@H]1O[C@@H](n2cnc3c(N)nc(C#CCC4CCN(C(=O)Oc5ccc(OC)cc5)CC4)nc32)[C@@H](O)C1O (stereo partly drawn) [Compound 15, N-Ethyl 2-{3-[1-(4-methoxyphenoxycarbonyl)-4-piperidinyl]-1-propyn-1-yl}adenosine-5′-uronamide] | < 1 | < 100 | < 1 | < 10
2 | CCNC(=O)[C@H]1O[C@@H](n2cnc3c(N)nc(C#CCC4CCN(C(=O)Oc5ccc(N)cc5)CC4)nc32)[C@@H](O)C1O (stereo partly drawn) [Compound 34, N-Ethyl 2-{3-[1-(4-aminophenoxycarbonyl)-4-piperidinyl]-1-propyn-1-yl}adenosine-5′-uronamide] | < 10 | < 100 | < 1 | < 100
3 | CCNC(=O)[C@H]1O[C@@H](n2cnc3c(N)nc(C#CCC4CCN(C(=O)Oc5ccc(C)cc5)CC4)nc32)[C@@H](O)C1O (stereo partly drawn) [Compound 16, N-Ethyl 2-{3-[1-(4-methylphenoxycarbonyl)-4-piperidinyl]-1-propyn-1-yl}adenosine-5′-uronamide] | < 1 | < 100 | < 1 | < 10
